Laboratory results from patent publication US6914045B2, “Glycopeptide antibiotics” (Wyeth Holdings Corporation, priority 2001, dated 2005).
Values after ≈ are worked out from the molar mass of the structure shown.

Key:
Experiment in all cases: in vitro antibacterial evaluation, MIC by broth dilution
Assay type in all cases: cell-based
Escherichia coli = details: 18 hours at 35° C.
Summary of the method: (§1)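 Broth dilution per NCCLS standard M7-A2 in Muller-Hinton II […], with an inoculum of 5×10^5 CFU/mL and antibiotic spanning 64-0.06 μg/mL. The MIC is the lowest concentration that inhibits growth of the organism.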

Enterococcus sp. = details: broth dilution, 18 hours at 35° C.
Summary of the method: as §1

Streptococcus sp. = details: broth dilution, 18 hours at 35° C.
Summary of the method: as §1

Staphylococcus sp. = details: broth dilution, 18 hours at 35° C.
Summary of the method: as §1

CC(c1ccccc1)C1NC(=O)CNC(=O)C(CO)NC(=O)C(C(O)C2CNC(=N)N2C2OC(CO)C(O)C(O)C2O)NC(=O)C(C(O)C2CNC(=N)N2)NC(=O)C(Cc2ccc(OC3OC(CO)C(OC4OC5COC(c6cccs6)OC5C(O)C4O)C(O)C3O)cc2)NC1=O (stereo not shown) [Example 132]
MIC Escherichia coli (ATCC 25922) (Escherichia coli; strain ATCC 25922): >64 µg/mL
MIC Escherichia coli (GC 4559) (Escherichia coli; strain GC 4559): 32 µg/mL (≈ 23 µM)
MIC Escherichia coli (GC 4560) (Escherichia coli; strain GC 4560): 1 µg/mL (≈ 0.72 µM)
MIC Enterococcus avium (GC 4558) (Enterococcus sp.; Enterococcus avium (GC 4558)): 16 µg/mL (≈ 11.5 µM)
MIC Enterococcus faecalis (ATCC 29212) (Enterococcus sp.; Enterococcus faecalis (ATCC 29212)): 8 µg/mL (≈ 5.76 µM)
MIC Enterococcus faecalis (GC 2242) (Enterococcus sp.; Enterococcus faecalis (GC 2242)): 8 µg/mL (≈ 5.76 µM)
MIC Enterococcus faecalis (GC 2691) (Enterococcus sp.; Enterococcus faecalis (GC 2691)): 8 µg/mL (≈ 5.76 µM)
MIC Enterococcus faecalis (GC 3059) (Enterococcus sp.; Enterococcus faecalis (GC 3059)): 16 µg/mL (≈ 11.5 µM)
MIC Enterococcus faecalis (GC 4552) (Enterococcus sp.; Enterococcus faecalis (GC 4552)): 8 µg/mL (≈ 5.76 µM)
MIC Enterococcus faecalis (GC 4553) (Enterococcus sp.; Enterococcus faecalis (GC 4553)): 16 µg/mL (≈ 11.5 µM)
MIC Enterococcus faecalis (GC 4554) (Enterococcus sp.; Enterococcus faecalis (GC 4554)): 8 µg/mL (≈ 5.76 µM)
MIC Enterococcus faecalis (GC 6189) (Enterococcus sp.; Enterococcus faecalis (GC 6189)): 8 µg/mL (≈ 5.76 µM)
MIC Enterococcus faecium (GC 2243) (Enterococcus sp.; Enterococcus faecium (GC 2243)): 8 µg/mL (≈ 5.76 µM)
MIC Enterococcus faecium (GC 4556) (Enterococcus sp.; Enterococcus faecium (GC 4556)): 8 µg/mL (≈ 5.76 µM)
MIC Enterococcus faecium (GC 4557) (Enterococcus sp.; Enterococcus faecium (GC 4557)): 4 µg/mL (≈ 2.88 µM)
MIC Enterococcus faecalis (ATCC 29212) (Enterococcus sp.; strain ATCC 29212): 8 µg/mL (≈ 5.76 µM)
MIC Enterococcus faecalis (GC 2242) (Enterococcus sp.; strain GC 2242): 8 µg/mL (≈ 5.76 µM)
MIC Enterococcus faecium (GC 2243) (Enterococcus sp.; strain GC 2243): 8 µg/mL (≈ 5.76 µM)
MIC Enterococcus faecalis (GC 2691) (Enterococcus sp.; strain GC 2691): 8 µg/mL (≈ 5.76 µM)
MIC Enterococcus faecalis (GC 3059) (Enterococcus sp.; strain GC 3059): 16 µg/mL (≈ 11.5 µM)
MIC Enterococcus faecalis (GC 4552) (Enterococcus sp.; strain GC 4552): 8 µg/mL (≈ 5.76 µM)
MIC Enterococcus faecalis (GC 4553) (Enterococcus sp.; strain GC 4553): 16 µg/mL (≈ 11.5 µM)
MIC Enterococcus faecalis (GC 4554) (Enterococcus sp.; strain GC 4554): 8 µg/mL (≈ 5.76 µM)
MIC Enterococcus faecium (GC 4556) (Enterococcus sp.; strain GC 4556): 8 µg/mL (≈ 5.76 µM)
MIC Enterococcus faecium (GC 4557) (Enterococcus sp.; strain GC 4557): 4 µg/mL (≈ 2.88 µM)
MIC Enterococcus avium (GC 4558) (Enterococcus sp.; strain GC 4558): 16 µg/mL (≈ 11.5 µM)
MIC Enterococcus faecalis (GC 6189) (Enterococcus sp.; strain GC 6189): 8 µg/mL (≈ 5.76 µM)
MIC Streptococcus agalactiae (GC 4564) (Streptococcus sp.; Streptococcus agalactiae (GC 4564)): 0.5 µg/mL (≈ 0.36 µM)
MIC Streptococcus pneumoniae (ATCC 6301) (Streptococcus sp.; Streptococcus pneumoniae (ATCC 6301)): 0.25 µg/mL (≈ 0.18 µM)
MIC Streptococcus pneumoniae (GC 1894) (Streptococcus sp.; Streptococcus pneumoniae (GC 1894)): 0.12 µg/mL (≈ 0.0864 µM)
MIC Streptococcus pneumoniae (GC 4565) (Streptococcus sp.; Streptococcus pneumoniae (GC 4565)): 0.25 µg/mL (≈ 0.18 µM)
MIC Streptococcus pyogenes (GC 4563) (Streptococcus sp.; Streptococcus pyogenes (GC 4563)): 0.5 µg/mL (≈ 0.36 µM)
MIC Streptococcus pneumoniae (ATCC 6301) (Streptococcus sp.; strain ATCC 6301): 0.25 µg/mL (≈ 0.18 µM)
MIC Streptococcus pneumoniae (GC 1894) (Streptococcus sp.; strain GC 1894): 0.12 µg/mL (≈ 0.0864 µM)
MIC Streptococcus pyogenes (GC 4563) (Streptococcus sp.; strain GC 4563): 0.5 µg/mL (≈ 0.36 µM)
MIC Streptococcus agalactiae (GC 4564) (Streptococcus sp.; strain GC 4564): 0.5 µg/mL (≈ 0.36 µM)
MIC Streptococcus pneumoniae (GC 4565) (Streptococcus sp.; strain GC 4565): 0.25 µg/mL (≈ 0.18 µM)
MIC Staphylococcus aureus (ATCC 29213) (Staphylococcus sp.): 4 µg/mL (≈ 2.88 µM)
MIC Staphylococcus aureus (GC 1131) (Staphylococcus sp.): 2 µg/mL (≈ 1.44 µM)
MIC Staphylococcus aureus (GC 3051) (Staphylococcus sp.): 2 µg/mL (≈ 1.44 µM)
MIC Staphylococcus aureus (GC 3053) (Staphylococcus sp.): 4 µg/mL (≈ 2.88 µM)
MIC Staphylococcus aureus (GC 4541) (Staphylococcus sp.): 2 µg/mL (≈ 1.44 µM)
MIC Staphylococcus aureus (GC 4542) (Staphylococcus sp.): 2 µg/mL (≈ 1.44 µM)
MIC Staphylococcus aureus (GC 4544) (Staphylococcus sp.): 4 µg/mL (≈ 2.88 µM)
MIC Staphylococcus aureus (GC 4545) (Staphylococcus sp.): 2 µg/mL (≈ 1.44 µM)
MIC Staphylococcus aureus (GC 1131) (Staphylococcus sp.; inoculum 5×10^5 CFU/mL, strain GC 1131): 2 µg/mL (≈ 1.44 µM)
MIC Staphylococcus aureus (ATCC 29213) (Staphylococcus sp.; strain ATCC 29213): 4 µg/mL (≈ 2.88 µM)
MIC Staphylococcus aureus (GC 3051) (Staphylococcus sp.; strain GC 3051): 2 µg/mL (≈ 1.44 µM)
MIC Staphylococcus aureus (GC 3053) (Staphylococcus sp.; strain GC 3053): 4 µg/mL (≈ 2.88 µM)
MIC Staphylococcus aureus (GC 4541) (Staphylococcus sp.; strain GC 4541): 2 µg/mL (≈ 1.44 µM)
MIC Staphylococcus aureus (GC 4542) (Staphylococcus sp.; strain GC 4542): 2 µg/mL (≈ 1.44 µM)
MIC Staphylococcus aureus-SMITH (GC 4543) (Staphylococcus sp.; strain GC 4543): 2 µg/mL (≈ 1.44 µM)
MIC Staphylococcus aureus (GC 4544) (Staphylococcus sp.; strain GC 4544): 4 µg/mL (≈ 2.88 µM)
MIC Staphylococcus aureus (GC 4545) (Staphylococcus sp.; strain GC 4545): 2 µg/mL (≈ 1.44 µM)
MIC Staphylococcus haemolyticus (GC 4546) (Staphylococcus sp.; strain GC 4546): 1 µg/mL (≈ 0.72 µM)
MIC Coagulase Negative Staphylococcus (GC 4547) (Staphylococcus sp.; strain GC 4547): 2 µg/mL (≈ 1.44 µM)
MIC Coagulase Negative Staphylococcus (GC 4548) (Staphylococcus sp.; strain GC 4548): 1 µg/mL (≈ 0.72 µM)
MIC Coagulase Negative Staphylococcus (GC 4549) (Staphylococcus sp.; strain GC 4549): 1 µg/mL (≈ 0.72 µM)
MIC Coagulase Negative Staphylococcus (GC 4551) (Staphylococcus sp.; strain GC 4551): 2 µg/mL (≈ 1.44 µM)
MIC Coagulase Negative Staphylococcus (GC 6257) (Staphylococcus sp.; strain GC 6257): 1 µg/mL (≈ 0.72 µM)
MIC Staphylococcus aureus-SMITH (GC 4543) (Staphylococcus sp.; strain SMITH GC 4543): 2 µg/mL (≈ 1.44 µM)
